How the values were obtained:
Type in all cases: biochemical
SRC = molecular target: T1, SRC (Homo sapiens, UniProt P12931); experiment: Src enzymatic assay (Caliper LifeSciences technology)
T1 construct: purchased Carna Bioscience, Kobe, Japan
Method: (§1) The assays described here are performed on the Caliper Life Sciences LC3000 system This technology provides data on enzyme activity via measurement of the relative amounts of phosphorylated or unphosphorylated fluorescently labelled substrate peptide at the end of an enzymatic reaction. These different states of peptide are resolved by applying a potential difference across the sample. The presence of the charged phosphate group on the product (as opposed to the substrate) causes a different peptide mobility between the two peptides. This is visualized by excitation of the fluorescent label on the substrate and product peptides and represented as peaks within the analysis software.
(§2) In order to measure inhibitor activity of kinase inhibitors on this technology, a TTP Mosquito liquid handling instrument is used to place 0.25 ul of the appropriate concentration of inhibitor in 100% DMSO (for a dose response curve calculation) into each well of a 384-well plate. To this reaction components are added to a final volume of 25 ul. The table below indicates the sequences and concentrations for the assays described in this report. Standard components are 1 mM DTT (Sigma, D0632), 1 mM MgCl2 (Sigma, M1028), 100 mM HEPES pH 7.5 (Calbiochem, 391338), 0.015% Brij-35 (Sigma, B4184).
(§3) The reaction is incubated for 90 min at 25 C, and then stopped by the addition of 70 ul of Stop buffer (100 mM HEPES pH 7.5, 0.015% Brij-35, 10 mM EDTA (Sigma, E7889)).
(§4) The plate is read on a Caliper LC 3000 in an Off-Chip mobility shift assay format, on a 12-sipper chip. Unphosphorylated substrate and phosphorylated product peptide resolve as separate peaks allowing direct measurement of percentage of conversion of substrate to product. The percent conversion can be plotted against concentration of inhibitor to produce a sigmoidal dose response curve, from which an IC50 can be calculated using GeneData Condoseo or a similar product.

Syk = molecular target: T2, Syk (Homo sapiens, UniProt P43405); experiment: Syk enzyme assay (SYK flash plate assay / Caliper mobility shift)
T2 construct: purchased BPS Bioscience, CA, USA
Method: The kinase assay is performed either as 384-well Flashplate assay (for e.g. Topcount measurement) or as 384-well Image-Flashplate assay (for LEADseeker measurement).
2.5 nM SYK, 400 nM Biotin-Aha-Aha-KEDPDYEWPSAKK
and 10 μM ATP (spiked with 0.3 μCi 33P-ATP/well) are incubated in a total volume of 50 μl (60 mM Hepes, 10 mM MgCl2, 1.2 mM Dithiothreitol, 0.02% Brij35, 0.1% BSA, pH 7.5) with or without test compound for 1 hours at 30° C. The reaction is stopped with 25 μl 200 mM EDTA. After 30 Min at 30° C. the liquid is removed and each well washed thrice with 100 μl 0.9% sodium chloride solution. Non-specific reaction is determined in presence of 0.1 μM Staurosporine. Radioactivity is measured with Topcount (when using Flashplates) or with LEADseeker (when using Image-Flashplates) respectively. Results (e.g. IC50-values) are calculated with program tools provided by the IT-department (e.g. Symyx Assay Explorer, Genedata Screener). Enzymatic Assays Using the Caliper LifeSciences Technology
as §1, §2, §3, §4

KDR = molecular target: T3, KDR (Homo sapiens, UniProt P35968); experiment: KDR enzymatic assay (Caliper LifeSciences technology)
T3 construct: purchased BPS Bioscience, CA, USA
Method: as §1, §2, §3, §4

T3 sequence (P35968 20-1356): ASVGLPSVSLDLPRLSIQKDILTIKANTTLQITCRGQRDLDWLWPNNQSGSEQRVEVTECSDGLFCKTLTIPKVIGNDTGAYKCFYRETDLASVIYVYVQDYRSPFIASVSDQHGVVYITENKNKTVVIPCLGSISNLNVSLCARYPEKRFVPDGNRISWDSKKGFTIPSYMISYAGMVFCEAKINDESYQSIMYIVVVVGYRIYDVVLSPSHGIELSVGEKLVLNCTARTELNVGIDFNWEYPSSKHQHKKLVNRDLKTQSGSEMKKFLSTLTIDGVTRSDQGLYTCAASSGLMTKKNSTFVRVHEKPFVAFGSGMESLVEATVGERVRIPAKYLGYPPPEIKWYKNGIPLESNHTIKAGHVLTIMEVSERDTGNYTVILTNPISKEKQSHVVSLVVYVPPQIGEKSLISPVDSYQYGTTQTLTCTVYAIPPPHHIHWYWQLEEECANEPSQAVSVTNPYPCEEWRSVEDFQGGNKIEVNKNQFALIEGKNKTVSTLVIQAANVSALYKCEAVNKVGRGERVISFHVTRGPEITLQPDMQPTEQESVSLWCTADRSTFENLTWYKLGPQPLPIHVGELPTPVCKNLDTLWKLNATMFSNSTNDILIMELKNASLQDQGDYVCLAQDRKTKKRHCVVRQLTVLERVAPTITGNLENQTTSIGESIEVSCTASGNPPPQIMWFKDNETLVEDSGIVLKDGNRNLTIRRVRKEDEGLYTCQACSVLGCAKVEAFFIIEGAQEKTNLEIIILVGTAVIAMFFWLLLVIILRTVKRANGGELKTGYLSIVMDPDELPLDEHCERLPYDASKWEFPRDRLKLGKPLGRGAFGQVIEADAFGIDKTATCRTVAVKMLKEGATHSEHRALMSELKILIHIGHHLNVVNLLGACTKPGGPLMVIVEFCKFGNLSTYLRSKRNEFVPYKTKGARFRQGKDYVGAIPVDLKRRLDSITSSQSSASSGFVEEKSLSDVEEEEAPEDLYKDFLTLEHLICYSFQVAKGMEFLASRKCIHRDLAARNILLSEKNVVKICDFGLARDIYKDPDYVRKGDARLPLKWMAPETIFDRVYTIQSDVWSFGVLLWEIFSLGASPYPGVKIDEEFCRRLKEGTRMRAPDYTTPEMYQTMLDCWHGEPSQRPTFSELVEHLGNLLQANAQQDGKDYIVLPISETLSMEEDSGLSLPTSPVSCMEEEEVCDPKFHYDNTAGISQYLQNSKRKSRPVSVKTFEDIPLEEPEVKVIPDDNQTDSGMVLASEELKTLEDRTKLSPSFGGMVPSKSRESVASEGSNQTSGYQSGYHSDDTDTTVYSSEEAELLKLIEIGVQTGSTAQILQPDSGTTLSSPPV
T1 sequence (P12931 whole entry): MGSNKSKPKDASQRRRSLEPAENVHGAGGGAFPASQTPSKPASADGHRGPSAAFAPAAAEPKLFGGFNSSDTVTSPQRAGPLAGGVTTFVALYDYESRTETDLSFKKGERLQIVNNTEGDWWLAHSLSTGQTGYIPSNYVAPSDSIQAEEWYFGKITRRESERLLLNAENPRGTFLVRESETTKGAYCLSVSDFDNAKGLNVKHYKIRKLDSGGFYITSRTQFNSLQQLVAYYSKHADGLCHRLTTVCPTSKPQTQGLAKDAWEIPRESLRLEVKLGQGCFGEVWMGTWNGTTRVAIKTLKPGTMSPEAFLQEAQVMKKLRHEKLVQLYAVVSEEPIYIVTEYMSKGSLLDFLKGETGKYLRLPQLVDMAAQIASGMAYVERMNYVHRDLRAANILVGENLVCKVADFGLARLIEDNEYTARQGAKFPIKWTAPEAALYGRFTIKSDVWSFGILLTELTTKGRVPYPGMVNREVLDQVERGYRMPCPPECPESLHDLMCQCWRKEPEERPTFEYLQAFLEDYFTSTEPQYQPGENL

Compound | IC50 (SRC) [µM] | IC50 (Syk) [µM] | IC50 (KDR) [µM]
COc1cc(-c2cc3nccc(-c4cccc5[nH]ccc45)c3o2)cc(OC)c1OC [Compound A20, 7-(1H-Indol-4-yl)-2-(3,4,5-trimethoxy-phenyl)-furo[3,2-b]pyridine] | 0.3 to 3 | < 0.3 | 3 to 50
COc1cc(-c2cc3nccc(-c4cccc(OCCN)c4)c3o2)cc(OC)c1OC [Compound A38, 2-{3-[2-(3,4,5-Trimethoxy-phenyl)-furo[3,2-b]pyridin-7-yl]-phenoxy}-ethylamine] | 3 to 50 | < 0.3 | 0.3 to 3
COc1cc(-c2cc3nccc(-c4cccc(CN)c4)c3o2)cc(OC)c1OC [Compound A51, 3-[2-(3,4,5-Trimethoxy-phenyl)-furo[3,2-b]pyridin-7-yl]-benzylamine] | 3 to 50 | < 0.3 | 0.3 to 3
COc1cc(-c2cc3nccc(-c4cccc(CNC(C)=O)c4)c3o2)cc(OC)c1OC [Compound A52, N-[[3-[2-(3,4,5-trimethoxyphenyl)furo[3,2-b]pyridin-7-yl]phenyl]methyl]-acetamide] | 3 to 50 | < 0.3 | 3 to 50
COc1cc(-c2cc3nccc(-c4cccc(C(=O)NC5CCNC5)c4)c3o2)cc(OC)c1OC (stereo not drawn) [Compound A66, N-pyrrolidin-3-yl-3-[2-(3,4,5-trimethoxyphenyl)furo[3,2-b]pyridin-7-yl]benzamide] | 0.3 to 3 | < 0.3 | –
COc1cc(-c2cc3nccc(-c4cccc(C(=O)N5CCC(N)C5)c4)c3o2)cc(OC)c1OC (stereo not drawn) [Compound A67, (3-aminopyrrolidin-1-yl)-[3-[2-(3,4,5-trimethoxyphenyl)furo[3,2-b]pyridin-7-yl]phenyl]methanone] | 0.3 to 3 | 0.3 to 3 | –
COc1cc(-c2cc3nccc(Nc4ccc(Sc5nccn5C)c(Cl)c4)c3o2)cc(OC)c1OC [Compound B16, [3-Chloro-4-(1-methyl-1H-imidazol-2-ylsulfanyl)-phenyl]-[2-(3,4,5-trimethoxy-phenyl)-furo[3,2-b]pyridin-7-yl]-amine] | 3 to 50 | 3 to 50 | 3 to 50
Cc1c(Nc2ccnc3cc(-c4ccccc4)oc23)ccc2[nH]ccc12 [Compound B21, (4-Methyl-1H-indol-5-yl)-(2-phenyl-furo[3,2-b]pyridin-7-yl)-amine] | < 0.3 | 0.3 to 3 | 0.3 to 3
COc1cc(-c2cc3nccc(-c4cc(OC)c(OC)c(OC)c4)c3o2)cc(OC)c1OC [Compound B24, 2,7-Bis-(3,4,5-trimethoxy-phenyl)-furo[3,2-b]pyridine] | 3 to 50 | < 0.3 | 3 to 50
COc1ccc(-c2cc3nccc(-c4ccc(OC)c(OC)c4OC)c3o2)c(OC)c1OC [Compound B40, 2,7-Bis-(2,3,4-trimethoxy-phenyl)-furo[3,2-b]pyridine] | 3 to 50 | 0.3 to 3 | 0.3 to 3
Cc1noc(C)c1-c1cc2nccc(-c3c(C)noc3C)c2o1 [Compound B41, 2,7-Bis-(3,5-dimethyl-isoxazol-4-yl)-furo[3,2-b]pyridine] | 3 to 50 | 3 to 50 | 3 to 50
Cc1ccc(-c2cc3nccc(Nc4ccc5[nH]ccc5c4C)c3o2)cc1 [Compound B46, (4-Methyl-1H-indol-5-yl)-(2-p-tolyl-furo[3,2-b]pyridin-7-yl)-amine] | < 0.3 | 3 to 50 | 0.3 to 3
COc1ccc(-c2cc3nccc(Nc4ccc5[nH]ccc5c4C)c3o2)cc1 [Compound B47, [2-(4-Methoxy-phenyl)-furo[3,2-b]pyridin-7-yl]-(4-methyl-1H-indol-5-yl)-amine] | 0.3 to 3 | 3 to 50 | 0.3 to 3
Cc1c(Nc2ccnc3cc(-c4ccc5c(c4)OCO5)oc23)ccc2[nH]ccc12 [Compound B48] | < 0.3 | 0.3 to 3 | 0.3 to 3
COc1c(C)cc(-c2cc3nccc(Nc4ccc5[nH]ccc5c4C)c3o2)cc1C [Compound B49, [2-(4-Methoxy-3,5-dimethyl-phenyl)-furo[3,2-b]pyridin-7-yl]-(4-methyl-1H-indol-5-yl)-amine] | < 0.3 | 0.3 to 3 | 0.3 to 3
COc1ccc(-c2cc3nccc(Nc4ccc5[nH]ccc5c4C)c3o2)cc1C [Compound B50, [2-(4-Methoxy-3-methyl-phenyl)-furo[3,2-b]pyridin-7-yl]-(4-methyl-1H-indol-5-yl)-amine] | 0.3 to 3 | 0.3 to 3 | 0.3 to 3
Cc1cccc(-c2cc3nccc(Nc4ccc5[nH]ccc5c4C)c3o2)c1 [Compound B51, (4-Methyl-1H-indol-5-yl)-(2-m-tolyl-furo[3,2-b]pyridin-7-yl)-amine] | 0.3 to 3 | 3 to 50 | 0.3 to 3
Cc1cc(C)cc(-c2cc3nccc(Nc4ccc5[nH]ccc5c4C)c3o2)c1 [Compound B52, [2-(3,5-Dimethyl-phenyl)-furo[3,2-b]pyridin-7-yl]-(4-methyl-1H-indol-5-yl)-amine] | 0.3 to 3 | 0.3 to 3 | 0.3 to 3

Compound | IC50 (SRC) [µM] | IC50 (Syk) [µM] | IC50 (KDR) [µM]
COc1ccc(-c2cc3nccc(Nc4ccc5[nH]ccc5c4C)c3o2)cc1OC [Compound B53, [2-(3,4-Dimethoxy-phenyl)-furo[3,2-b]pyridin-7-yl]-(4-methyl-1H-indol-5-yl)-amine] | < 0.3 | < 0.3 | < 0.3
Cc1c(Nc2ccnc3cc(-c4ccc(N5CCOCC5)cc4)oc23)ccc2[nH]ccc12 [Compound B54] | < 0.3 | 0.3 to 3 | 0.3 to 3
COc1ccc(-c2cc3nccc(Nc4ccc5[nH]ccc5c4C)c3o2)c(OC)c1OC [Compound B56] | < 0.3 | 0.3 to 3 | < 0.3
COc1cccc(-c2cc3nccc(Nc4ccc5[nH]ccc5c4C)c3o2)c1 [Compound B57, [2-(3-Methoxy-phenyl)-furo[3,2-b]pyridin-7-yl]-(4-methyl-1H-indol-5-yl)-amine] | < 0.3 | 0.3 to 3 | < 0.3
COc1cc(-c2cc3nccc(-c4cccc(NC(C)=O)c4)c3o2)cc(OC)c1OC [Compound B72, N-(3-(2-(3,4,5-Trimethoxyphenyl)furo[3,2-b]pyridin-7-yl)phenyl)acetamide] | 3 to 50 | 0.3 to 3 | –
COc1cc(-c2cc3nccc(-c4cccc(C(=O)NCC5CCCN5)c4)c3o2)cc(OC)c1OC (stereo not drawn) [Compound C11] | 3 to 50 | < 0.3 | –
CC(C)c1cccc(-c2cc3nccc(-c4cnn(C)c4)c3o2)c1 [Compound C45] | – | 0.3 to 3 | 3 to 50
Cn1cc(-c2ccnc3cc(-c4ccc(N5CCOCC5)cc4)oc23)cn1 [Compound C49] | – | 0.3 to 3 | 0.3 to 3
Cn1cc(-c2ccnc3cc(-c4ccc(CO)cc4)oc23)cn1 [Compound C59] | – | 0.3 to 3 | 0.3 to 3
COc1cc(-c2cc3nccc(-c4cnn(C)c4)c3o2)ccc1OCCNC(=O)OC(C)(C)C [Compound C62] | – | 0.3 to 3 | 0.3 to 3
COc1cc(-c2cc3nccc(C4=CCOCC4)c3o2)cc(OC)c1OC [Compound C68] | – | 0.3 to 3 | < 0.3
Cn1cc(-c2ccnc3cc(-c4ccc5cnn(C)c5c4)oc23)cn1 [Compound C98] | – | < 0.3 | 3 to 50
COc1cc(-c2cc3nccc(-c4cccc(S(C)(=O)=O)c4)c3o2)cc(OC)c1OC [Compound C110] | – | < 0.3 | 0.3 to 3
COc1cc(-c2cc3nccc(-c4c(F)cccc4OC)c3o2)cc(OC)c1OC [Compound C119] | 3 to 50 | < 0.3 | –
COc1ccc(OC)c(-c2cc3nccc(-c4cnn(C)c4)c3o2)c1 [Compound C140] | 0.3 to 3 | < 0.3 | –
COc1cc(-c2cc3nccc(-c4cc(O)cc(C(=O)NCCN)c4)c3o2)cc(OC)c1OC [Compound C149] | 0.3 to 3 | < 0.3 | –
COc1cc(C(=O)N[C@@H]2CCCC[C@@H]2N)cc(-c2ccnc3cc(-c4cc(OC)c(OC)c(OC)c4)oc23)c1 [Compound C170] | < 0.3 | < 0.3 | –
